# According to patent publication US9181251B2, “Anti-malarial compounds from marine natural products” (University of Central Florida Research Foundation, Inc., priority 2012, dated 2015):
# Like-named read-outs stand apart in the source and are kept apart here.
# Columns and labels:
# NIH 3T3 fibroblasts = experiment: Cytotoxicity against NIH 3T3 fibroblasts (MTS assay); assay type: cell-based; conditions: Table 2, MTS assay
# Method: (§1) Antiplasmodial activity was tested in P falciparum chloroquine resistant Dd2, and the cytotoxicity was assessed in NIH 3T3 fibroblasts cells.
# (§2) Asynchronous cultures were exposed to different concentrations of inhibitor for 72 hrs. […] The cytotoxicity against NIH 3T3 fibroblasts was evaluated using an MTS assay [(3-(4,5-dimethylthiazol-2-yl)-5-(3-carboxymethoxyphenyl)-2-(4-sulfophenyl)-2H-tetrazolium), CellTiter 96® Aqueous non-radioactive cell proliferation assay, Promega
# [1] = tested on: P. falciparum chloroquine-resistant Dd2 strain; experiment: Antiplasmodial activity, SYBR Green I fluorescence-based assay; assay type: cell-based; conditions: for Selectivity: cytotoxicity IC50 (NIH 3T3) over Dd2 IC50
# Method: Fractions were derived from 20 different marine species. […] All fractions were then analyzed by LC-MS to identify active extracts with the greatest potential for novelty.
# as §1, §2
# [2] = reported in the past, Gutierrez et. al. Pharmaceutical Biol. 2005, 43, 762-765; cited from earlier work
# [3] = Cytotoxicity against NIH 3T3 fibroblasts (MTS assay); assay type: cell-based; conditions: mouse, Table 1, NIH 3T3 fibroblasts cells
# Method: as §1, §2
# [4] = has been shown, no source given; cited from earlier work
# [5] = Plasmodium falciparum, Table 2, chloroquine-resistant Dd2 strain, asynchronous cultures, 72 hrs, read-out: P. falciparum IC50
# [6] = Plasmodium falciparum, Table 1, P falciparum chloroquine resistant Dd2, read-out: Dd2 IC50
# [7] = Table 2, chloroquine-resistant Dd2 strain, asynchronous cultures, 72 hrs, read-out: P. falciparum IC50
molecule,measurement,setting,value
"NCC(c1c[nH]c2ccccc12)c1c[nH]c2ccccc12 [2,2 bisindol-3-ylethyl amine 9, 2,2 bisindol-3-ylethyl amine]",IC50,"NIH 3T3 fibroblasts; Mus musculus, NIH3T3",11.5 µM
same,IC50,[1]; [5],6.5 µM
"COC1=C(Br)[C@H](O)[C@](O)(CC#N)C=C1Br [Aeroplysin-1, aeroplysinin-1]",anti-malarial activity,[2],anti-malarial activity
C/C1=C/C(=O)C/C(C)=C/CC(C)(C)/C=C/C(=O)[C@@H](C)CCC1 [Compound 2],IC50,[3]; NIH 3T3 fibroblast cells,21.8 µM
same,IC50,[1]; [6],1.56 µM
same,Selectivity,[1]; Table 1,13.94
C/C1=C\CC(C)(C)/C=C/C(=O)[C@@H](C)CCC[C@H](C)CC(=O)C1 [Compound 3],IC50,[3]; NIH 3T3 fibroblast cells,20 µM
same,IC50,"[1]; Plasmodium falciparum, Dd2 strain printed for compound 3 only, strain not printed for 4 and HB39.A10, read-out: IC50",2.5 µM
same,IC50,[1]; [6],1.77 µM
same,Selectivity,[1]; Table 1,11.34
"COc1ccc(/C=C/CCCCC(C)[C@H](O)[C@@H](O)C2NC(=O)C[C@@H](O)CNC(=O)CNC(=O)[C@@H](Cc3c(C(=O)O)[nH]c4ccccc34)NC(=O)CN(C)C(=O)C[C@@]3(O)NC(=O)[C@H](O)C3NC(=O)[C@H]2O)cc1 (stereo partly shown) [Compound 4, microsclerodermin A]",IC50,[3],3.53 µM
same,IC50,"[1]; Plasmodium falciparum, DD2",0.73 µM
same,IC50,"[1]; Plasmodium falciparum, DD2, read-out: Dd2 IC50",0.075 µM
same,Selectivity,[1]; Table 1,47.07
"CCC(=O)NCCc1c2c3c(ccnc3c3ncsc13)-c1ccccc1N2 [Compound 5, dercitamide]",IC50,[3]; NIH 3T3 fibroblast cells,14.8 µM
same,cytotoxicity,[4],very moderate cytotoxicity
same,IC50,"[1]; Dd2 strain printed for compound 3 only, strain not printed for 4 and HB39.A10, read-out: IC50",2.3 µM
same,IC50,[1]; [6],1.05 µM
same,Selectivity,[1]; Table 1,14.13
"CN1CC(c2c[nH]c3c(Br)c(Br)cc(O)c23)NCC1c1c[nH]c2cc(Br)ccc12 (stereo not shown) [Dragmacidin 6, Dragmacidin]",IC50,NIH 3T3 fibroblasts,7.8 µM
same,IC50,[1]; [7],6.4 µM
"NC(N)=NCCSc1nc(-c2c[nH]c3cc(Br)ccc23)cnc1-c1c[nH]c2cc(Br)ccc12 [Dragmacidin G 12, Dragmacidin G]",IC50,NIH 3T3 fibroblasts,7.8 µM
same,IC50,[1]; [7],6.4 µM
"O=C1N[C@@H](c2c[nH]c3cc(Br)ccc23)CN=C1c1c[nH]c2cc(Br)ccc12 [Hamacanthin A 7, Hamacanthin A]",IC50,NIH 3T3 fibroblasts,30.4 µM
same,IC50,[1]; [7],3.2 µM
"O=C1NC[C@H](c2c[nH]c3cc(Br)ccc23)N=C1c1c[nH]c2cc(Br)ccc12 [Hamacanthin B 8, Hamacanthin B]",IC50,NIH 3T3 fibroblasts,38.6 µM
same,IC50,[1]; [7],> 20.6 µM
"Brc1ccc2c(-c3cnc(-c4c[nH]c5cc(Br)ccc45)[nH]3)c[nH]c2c1 [Nortopsentin A, reference compound]",IC50,"NIH 3T3 fibroblasts; Mus musculus, NIH3T3",6 µM
same,IC50,[1]; [5],0.6 µM
Dragmacidin D [Dragmacidin D 11],IC50,NIH 3T3 fibroblasts,27.7 µM
same,IC50,[1]; [7],5.2 µM
